Data reported in publication PMC13503962, “Uncovering the genetic basis of fruit volatiles in Fragaria vesca through GWAS reveals FvJMT2 as a methyl benzoate biosynthesis gene with bioactivity against Drosophila suzukii” (Horticulture Research, 2026).

Test system: T1, FvJMT2 (FvJMT2^C275, functional full-length allele)
T1 construct: full-length CDS (1173 nt, 390 residues) in pQE80L, N-terminal 6xHis tag, E. coli XL1-Blue, Ni-NTA purified; tag removal not mentioned
Assay: radiochemical methyl transfer from […]-SAM, hexane extraction, scintillation counting; nonlinear Michaelis-Menten fit
Format: biochemical, Fragaria vesca
Settings: co-substrate SAM (saturating); 50 mM Tris-HCl pH 7.5, 2.5 mM MgCl2, 5 mM DTT, 2.5 mM EDTA, 30 °C; read-out: Kinetic parameters / Km /

SMILES | Km [µM]
CC/C=C\C[C@H]1C(=O)CC[C@@H]1CC(=O)O [Jasmonic acid] | 174
O=C(O)c1ccccc1 [Benzoic acid] | 577
O=C(O)c1ccccc1O [Salicylic acid] | 690
O=C(O)/C=C/c1ccccc1 [Cinnamic acid] | 597
